The results in this text go back to patent publication US11730720B2, “ALK5 inhibitors” (THERAVANCE BIOPHARMA R&D IP, LLC, priority 2018, dated 2023).

The structures appear in SMILES notation.

In experiment [1] the test system is TGF-β-stimulated SMAD3 phosphorylation in BEAS-2B cells. Nature of the experiment: Cellular ALK5 potency assay, inhibition of TGF-β stimulated pSMAD3 formation in BEAS-2B cells. As to conditions: Homo sapiens, inhibition of TGF-β (10 ng/mL) stimulated pSMAD3 formation, 1 hour compound incubation, read-out: BEAS2B pIC50 (converted). In kind it is cell-based. The procedure, abridged:
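Phospho-SMAD3 was quantified by AlphaLISA in lysates of human lung epithelial BEAS-2B cells. Compound was added 1 h (37 °C, HEPES/BSA-supplemented HBSS) before a 30 min challenge with 10 ng/mL TGF-β. Values are pIC50 relative to stimulated cells without compound.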

The target of experiment [2] is T1, recombinant human ALK5 (TGF-βR1) protein (Homo sapiens, UniProt P36897).
T1 construct: purchased Life Technologies PR9075A
T1 sequence (P36897 34-503): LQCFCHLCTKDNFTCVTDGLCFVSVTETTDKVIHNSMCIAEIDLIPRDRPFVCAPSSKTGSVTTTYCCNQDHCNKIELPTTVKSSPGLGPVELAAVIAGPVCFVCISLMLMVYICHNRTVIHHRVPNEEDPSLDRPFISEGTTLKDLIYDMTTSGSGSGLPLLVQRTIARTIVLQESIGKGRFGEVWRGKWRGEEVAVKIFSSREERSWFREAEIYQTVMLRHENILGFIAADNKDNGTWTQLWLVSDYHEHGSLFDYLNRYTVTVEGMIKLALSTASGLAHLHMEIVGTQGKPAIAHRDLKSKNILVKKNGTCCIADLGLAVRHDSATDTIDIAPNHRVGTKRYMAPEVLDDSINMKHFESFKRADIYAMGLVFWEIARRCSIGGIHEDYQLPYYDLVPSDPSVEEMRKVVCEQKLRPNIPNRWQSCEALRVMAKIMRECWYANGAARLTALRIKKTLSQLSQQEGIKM
Nature of the experiment: Biochemical ALK5 (TGF-βR1) assay to measure pKi (LANCE Ultra ULight kinase assay). The conditions noted are these: apparent pKi, converted from pIC50 using the Cheng-Prusoff equation. The procedure, abridged:
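TR-FRET kinase format: compound dose range 10 μM–25 pM equilibrated 60 min with human ALK5 and ULight-labelled topoisomerase 2α peptide in HEPES/MgCl2 buffer pH 7.5 with DTT. Reaction started with ATP (125 μM stock, 5× final), 60 min at 37° C, stopped with EDTA/Eu-anti-phospho antibody; pKi derived from pIC50 via Cheng-Prusoff.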

Regarding `NC1CN(c2cnc3ccc(-c4c[nH]nc4-c4cc(Cl)c(F)cc4F)nc3c2)C1` [Compound 6-30, 1-[6-[3-(5-chloro-2,4-difluoro-phenyl)-1H-pyrazol-4-yl]-1,5-naphthyridin-3-yl]azetidin-3-amine], the IC50 in experiment [1] was 25.1 to 158 nM. Further, the Ki in experiment [2] is 0.0398 to 0.316 nM.
Take `CNC1CN(c2cnc3ccc(-c4c[nH]nc4-c4cc(Cl)c(F)cc4F)nc3c2)C1` [Compound 6-31, 1-[6-[3-(5-chloro-2,4-difluoro-phenyl)-1H-pyrazol-4-yl]-1,5-naphthyridin-3-yl]-N-methyl-azetidin-3-amine]: the IC50 in experiment [1] was no more than 20 nM. Moreover, the Ki in experiment [2] is 0.0398 to 0.316 nM.
For the compound `CN(CC1CNC1)c1cnc2ccc(-c3c[nH]nc3-c3cc(Cl)c(F)cc3F)nc2c1` [Compound 6-32, N-(azetidin-3-ylmethyl)-6-[3-(5-chloro-2,4-difluoro-phenyl)-1H-pyrazol-4-yl]-N-methyl-1,5-naphthyridin-3-amine], the IC50 in experiment [1] is 25.1 to 158 nM. The Ki in experiment [2] is 0.0398 to 0.316 nM.
On the same counts, the results for `Fc1cc(F)c(-c2n[nH]cc2-c2ccc3ncc(N4CC5CNC5C4)cc3n2)cc1Cl` (stereo not drawn) [Compound 6-33, 2-[3-(5-chloro-2,4-difluoro-phenyl)-1H-pyrazol-4-yl]-7-(3,6-diazabicyclo[3.2.0]heptan-3-yl)-1,5-naphthyridine] are 25.1 to 158 nM and 0.398 to 3.16 nM.
Take `NC1CCN(c2cnc3ccc(-c4c[nH]nc4-c4cc(Cl)c(F)cc4F)nc3c2)C1` (stereo not drawn) [Compound 6-34, 1-[6-[3-(5-chloro-2,4-difluoro-phenyl)-1H-pyrazol-4-yl]-1,5-naphthyridin-3-yl]pyrrolidin-3-amine]: the IC50 in experiment [1] is no more than 20 nM. Also, the Ki in experiment [2] was no more than 0.0316 nM.
On to `CNC1CCN(c2cnc3ccc(-c4c[nH]nc4-c4cc(Cl)c(F)cc4F)nc3c2)C1` (stereo not drawn) [Compound 6-35, 1-[6-[3-(5-chloro-2,4-difluoro-phenyl)-1H-pyrazol-4-yl]-1,5-naphthyridin-3-yl]-N-methyl-pyrrolidin-3-amine], for which the IC50 in experiment [1] was no more than 20 nM. Moreover, the Ki in experiment [2] was no more than 0.0316 nM.
Turning to `NCCN1CCN(c2cnc3ccc(-c4c[nH]nc4-c4cc(Cl)c(F)cc4F)nc3c2)CC1` [Compound 6-36, 2-[4-[6-[3-(5-chloro-2,4-difluoro-phenyl)-1H-pyrazol-4-yl]-1,5-naphthyridin-3-yl]piperazin-1-yl]ethanamine], the IC50 in experiment [1] is 25.1 to 158 nM. Moreover, in experiment [2], the Ki is 0.0398 to 0.316 nM.
With `CC(C)N1CC[C@@H](N(C)c2cnc3ccc(-c4c[nH]nc4-c4cc(Cl)c(F)cc4F)nc3c2)C1` [Compound 6-37, (R)-6-(3-(5-chloro-2,4-difluorophenyl)-1H-pyrazol-4-yl)-N-(1-isopropylpyrrolidin-3-yl)-N-methyl-1,5-naphthyridin-3-amine], in experiment [1], the IC50 was 25.1 to 158 nM. For the same compound, in experiment [2], the Ki is 0.0398 to 0.316 nM.
`CNC(=O)[C@H]1CN(c2cnc3ccc(-c4c[nH]nc4-c4cc(Cl)c(F)cc4F)nc3c2)CCN1C(C)C` [Compound 6-38, (2R)-4-[6-[3-(5-chloro-2,4-difluoro-phenyl)-1H-pyrazol-4-yl]-1,5-naphthyridin-3-yl]-1-isopropyl-N-methyl-piperazine-2-carboxamide]: in experiment [1], the IC50 is 25.1 to 158 nM. Further, the Ki in experiment [2] is 0.0398 to 0.316 nM.
Take `CC(C)NCCN1CCN(c2cnc3ccc(-c4c[nH]nc4-c4cc(Cl)c(F)cc4F)nc3c2)CC1` [Compound 6-39, N-[2-[4-[6-[3-(5-chloro-2,4-difluoro-phenyl)-1H-pyrazol-4-yl]-1,5-naphthyridin-3-yl]piperazin-1-yl]ethyl]propan-2-amine]: the IC50 in experiment [1] was 25.1 to 158 nM. Further, the Ki in experiment [2] was 0.0398 to 0.316 nM.
In the case of `CNCCn1ccc(-c2cnc3ccc(-c4c[nH]nc4-c4cc(Cl)c(F)cc4F)nc3c2)n1` [Compound 6-40, 2-(3-(6-(3-(5-chloro-2,4-difluorophenyl)-1H-pyrazol-4-yl)-1,5-naphthyridin-3-yl)-1H-pyrazol-1-yl)-N-methylethan-1-amine], in experiment [1], the IC50 was no more than 20 nM. For the same compound, the Ki in experiment [2] is no more than 0.0316 nM.
As for `NCCn1cc(-c2cnc3ccc(-c4c[nH]nc4-c4cc(Cl)c(F)cc4F)nc3c2)cn1` [Compound 6-41, 2-[4-[6-[3-(5-chloro-2,4-difluoro-phenyl)-1H-pyrazol-4-yl]-1,5-naphthyridin-3-yl]pyrazol-1-yl]ethanamine], the IC50 in experiment [1] was 25.1 to 158 nM. Also, the Ki in experiment [2] was no more than 0.0316 nM.
The like results for `Fc1cc(F)c(-c2n[nH]cc2-c2ccc3ncc(-c4cnn(CC5CNC5)c4)cc3n2)cc1Cl` [Compound 6-42, 7-[1-(azetidin-3-ylmethyl)pyrazol-4-yl]-2-[3-(5-chloro-2,4-difluoro-phenyl)-1H-pyrazol-4-yl]-1,5-naphthyridine] were, in that order, 25.1 to 158 nM and 0.0398 to 0.316 nM.
Regarding `CN1CC=C(c2cnc3ccc(-c4c[nH]nc4-c4cc(Cl)c(F)cc4F)nc3c2)C1` [Compound 6-43, 2-(3-(5-chloro-2,4-difluorophenyl)-1H-pyrazol-4-yl)-7-(1-methyl-2,5-dihydro-1H-pyrrol-3-yl)-1,5-naphthyridine], the IC50 in experiment [1] is no more than 20 nM. The Ki in experiment [2] is 0.0398 to 0.316 nM.
Regarding `CC(C)N1CC=C(c2cnc3ccc(-c4c[nH]nc4-c4cc(Cl)c(F)cc4F)nc3c2)C1` [Compound 6-44, 2-[3-(5-chloro-2,4-difluoro-phenyl)-1H-pyrazol-4-yl]-7-(1-isopropyl-2,5-dihydropyrrol-3-yl)-1,5-naphthyridine], the IC50 in experiment [1] is no more than 20 nM. Besides, the Ki in experiment [2] was 0.0398 to 0.316 nM.
The like results for `Fc1cc(F)c(-c2n[nH]cc2-c2ccc3ncc(-c4cnn5c4CNCC5)cc3n2)cc1Cl` [Compound 6-45, 2-(3-(5-chloro-2,4-difluorophenyl)-1H-pyrazol-4-yl)-7-(4,5,6,7-tetrahydropyrazolo[1,5-a]pyrazin-3-yl)-1,5-naphthyridine] were, in that order, 25.1 to 158 nM and 0.0398 to 0.316 nM.
In the case of `Fc1cc(F)c(-c2n[nH]cc2-c2ccc3ncc(-c4nc5n(n4)CCNC5)cc3n2)cc1Cl` [Compound 6-46, 2-[3-(5-chloro-2,4-difluoro-phenyl)-1H-pyrazol-4-yl]-7-(5,6,7,8-tetrahydro-[1,2,4]triazolo[1,5-a]pyrazin-2-yl)-1,5-naphthyridine], the IC50 in experiment [1] is 25.1 to 158 nM. For the same compound, the Ki in experiment [2] is 0.0398 to 0.316 nM.
On to `Fc1cc(F)c(-c2n[nH]cc2-c2ccc3ncc(-c4nnn5c4NCCC5)cc3n2)cc1Cl` [Compound 6-47, 2-[3-(5-chloro-2,4-difluoro-phenyl)-1H-pyrazol-4-yl]-7-(4,5,6,7-tetrahydrotriazolo[1,5-a]pyrimidin-3-yl)-1,5-naphthyridine], for which the IC50 in experiment [1] is 25.1 to 158 nM. Besides, the Ki in experiment [2] is 0.398 to 3.16 nM.
With `Fc1cc(F)c(-c2n[nH]cc2-c2ccc3ncc(-c4cnc5n4CCNC5)cc3n2)cc1Cl` [Compound 6-48, 2-[3-(5-chloro-2,4-difluoro-phenyl)-1H-pyrazol-4-yl]-7-(5,6,7,8-tetrahydroimidazo[1,2-a]pyrazin-3-yl)-1,5-naphthyridine], in experiment [1], the IC50 was 25.1 to 158 nM. Besides, the Ki in experiment [2] is 0.398 to 3.16 nM.
On the same counts, the results for `Fc1cc(F)c(-c2n[nH]cc2-c2ccc3ncc(-c4ncn5c4CNCC5)cc3n2)cc1Cl` [Compound 6-49, 2-[3-(5-chloro-2,4-difluoro-phenyl)-1H-pyrazol-4-yl]-7-(5,6,7,8-tetrahydroimidazo[1,5-a]pyrazin-1-yl)-1,5-naphthyridine] are 25.1 to 158 nM and 0.0398 to 0.316 nM.
Turning to `Fc1cc(F)c(-c2n[nH]cc2-c2ccc3ncc(-c4nc(C(F)(F)F)n5c4CNCC5)cc3n2)cc1Cl` [Compound 6-50, 2-[3-(5-chloro-2,4-difluoro-phenyl)-1H-pyrazol-4-yl]-7-[3-(trifluoromethyl)-5,6,7,8-tetrahydroimidazo[1,5-a]pyrazin-1-yl]-1,5-naphthyridine], in experiment [1], the IC50 was 25.1 to 158 nM. Besides, the Ki in experiment [2] is 3.98 to 31.6 nM.
Regarding `Fc1cc(F)c(-c2n[nH]cc2-c2ccc3ncc(-c4ncc5n4CCNC5)cc3n2)cc1Cl` [Compound 6-51, 2-[3-(5-chloro-2,4-difluoro-phenyl)-1H-pyrazol-4-yl]-7-(5,6,7,8-tetrahydroimidazo[1,5-a]pyrazin-3-yl)-1,5-naphthyridine], the IC50 in experiment [1] was 25.1 to 158 nM. In experiment [2], the Ki is 0.398 to 3.16 nM.
Regarding `Fc1cc(F)c(-c2n[nH]cc2-c2ccc3ncc(-c4cn5c(n4)CNCC5)cc3n2)cc1Cl` [Compound 6-52, 2-[3-(5-chloro-2,4-difluoro-phenyl)-1H-pyrazol-4-yl]-7-(5,6,7,8-tetrahydroimidazo[1,2-a]pyrazin-2-yl)-1,5-naphthyridine], the IC50 in experiment [1] was 25.1 to 158 nM. Moreover, the Ki in experiment [2] was 0.0398 to 0.316 nM.
Turning to `Fc1cc(F)c(-c2n[nH]cc2-c2ccc3ncc(-c4[nH]nc5c4CCNC5)cc3n2)cc1Cl` [Compound 6-53, 2-[3-(5-chloro-2,4-difluoro-phenyl)-1H-pyrazol-4-yl]-7-(4,5,6,7-tetrahydro-2H-pyrazolo[3,4-c]pyridin-3-yl)-1,5-naphthyridine], the IC50 in experiment [1] was 25.1 to 158 nM. Also, the Ki in experiment [2] is 0.0398 to 0.316 nM.
